Assay: xn = mol fraction of the nth substance listed
Conditions: 101 kPa, Liquid

CC(C)CCl [1-chloro-2-methylpropane] + COC(C)(C)C
viscosity [mPa·s]
Conditions	283.15 K	288.15 K	293.15 K	298.15 K	303.15 K	308.15 K	313.15 K
x1 = 0.0492	0.3948	0.369	0.3527	0.3369	0.3194	0.3035	0.2885
x1 = 0.0996	0.4002	0.3742	0.3573	0.3412	0.3237	0.3076	0.2926
x1 = 0.1979	0.4107	0.3844	0.3664	0.3495	0.3322	0.316	0.3005
x1 = 0.3023	0.4224	0.3957	0.3764	0.3587	0.3412	0.3248	0.3091
x1 = 0.4027	0.4338	0.4065	0.3861	0.3676	0.3502	0.3335	0.3174
x1 = 0.504	0.4458	0.4178	0.396	0.3768	0.3594	0.3424	0.3261
x1 = 0.5971	0.4574	0.4287	0.4057	0.3856	0.3681	0.351	0.3341
x1 = 0.7036	0.4714	0.442	0.4173	0.3962	0.3786	0.3611	0.3437
x1 = 0.8003	0.4848	0.4547	0.4286	0.4063	0.3886	0.3707	0.3527
x1 = 0.9031	0.5	0.4689	0.4413	0.4179	0.3998	0.3813	0.3626
x1 = 0.9522	0.5078	0.4763	0.4478	0.4238	0.4054	0.3868	0.3676
x1 = 1	0.5155	0.4833	0.454	0.4296	0.4112	0.3921	0.3726

CCCCCl [1-chlorobutane] + COC(C)(C)C
viscosity [mPa·s]
Conditions	283.15 K	288.15 K	293.15 K	298.15 K	303.15 K	308.15 K	313.15 K
x1 = 0.0499	0.395	0.369	0.3525	0.3367	0.3193	0.3033	0.288
x1 = 0.1002	0.4003	0.3741	0.3571	0.3409	0.3234	0.3074	0.2915
x1 = 0.2011	0.411	0.3844	0.3663	0.3494	0.332	0.3159	0.2991
x1 = 0.302	0.4224	0.3952	0.3758	0.3582	0.3408	0.3247	0.3068
x1 = 0.4007	0.4339	0.4063	0.3855	0.367	0.3498	0.3335	0.3146
x1 = 0.5026	0.4461	0.418	0.3959	0.3765	0.3592	0.3428	0.3229
x1 = 0.6029	0.4581	0.4295	0.4063	0.386	0.3686	0.3519	0.3312
x1 = 0.693	0.4686	0.4396	0.4155	0.3945	0.377	0.3605	0.3389
x1 = 0.8064	0.481	0.4518	0.4266	0.4048	0.3876	0.371	0.3482
x1 = 0.904	0.4912	0.4616	0.4355	0.4134	0.3966	0.3799	0.3563
x1 = 0.9509	0.4951	0.4658	0.4392	0.4173	0.4007	0.3841	0.3601
x1 = 1	0.4993	0.4701	0.4433	0.4214	0.405	0.3885	0.3642

CCC(C)Cl (stereo not given) [2-chlorobutane] + COC(C)(C)C
viscosity [mPa·s]
Conditions	283.15 K	288.15 K	293.15 K	298.15 K	303.15 K	308.15 K	313.15 K
x1 = 0.0434	0.3916	0.3664	0.3507	0.3353	0.3177	0.3019	0.287
x1 = 0.0928	0.3949	0.3694	0.3536	0.3383	0.3207	0.3048	0.2897
x1 = 0.1824	0.4008	0.3752	0.3591	0.3436	0.3261	0.3099	0.2948
x1 = 0.2774	0.4072	0.3816	0.365	0.3495	0.3319	0.3155	0.3002
x1 = 0.3786	0.4141	0.3883	0.3715	0.3558	0.338	0.3215	0.306
x1 = 0.4751	0.4208	0.3951	0.3779	0.3619	0.3441	0.3273	0.3117
x1 = 0.584	0.4287	0.4029	0.3853	0.3691	0.351	0.334	0.3182
x1 = 0.6819	0.436	0.4101	0.3921	0.3757	0.3575	0.3401	0.3241
x1 = 0.8032	0.4456	0.4195	0.4009	0.3843	0.3657	0.3481	0.3317
x1 = 0.9015	0.4536	0.4274	0.4084	0.3915	0.3727	0.3547	0.3379
x1 = 0.9512	0.458	0.4318	0.4125	0.3954	0.3764	0.3581	0.3411
x1 = 1	0.4631	0.4365	0.4167	0.3993	0.38	0.3615	0.3443

CCCCOCC [butyl ethyl ether] + CC(C)CCl
viscosity [mPa·s]
Conditions	283.15 K	288.15 K	293.15 K	298.15 K	303.15 K	308.15 K	313.15 K
x2 = 0	0.4796	0.4509	0.4242	0.399	0.3756	0.356	0.3416
x2 = 0.0493	0.4797	0.4512	0.4246	0.3993	0.3762	0.3569	0.3423
x2 = 0.1004	0.4799	0.4514	0.4248	0.3998	0.3771	0.3578	0.3432
x2 = 0.2001	0.4812	0.4526	0.4259	0.4012	0.3793	0.3603	0.3455
x2 = 0.3012	0.4836	0.4548	0.4279	0.4035	0.3822	0.3634	0.3481
x2 = 0.4021	0.4866	0.4574	0.4305	0.4063	0.3855	0.3667	0.3511
x2 = 0.5025	0.4903	0.4609	0.4337	0.4097	0.3893	0.3704	0.3543
x2 = 0.6007	0.4946	0.4649	0.4374	0.4133	0.3933	0.3745	0.3576
x2 = 0.6993	0.4994	0.4692	0.4412	0.4171	0.3975	0.3786	0.3612
x2 = 0.7994	0.5044	0.4736	0.4453	0.4211	0.4021	0.3832	0.3649
x2 = 0.8993	0.5099	0.4783	0.4496	0.4253	0.4065	0.3875	0.3687
x2 = 0.9491	0.5126	0.4808	0.4518	0.4274	0.4089	0.3898	0.3706

CCCCOCC [butyl ethyl ether] + CCC(C)Cl
viscosity [mPa·s]
Conditions	283.15 K	288.15 K	293.15 K	298.15 K	303.15 K	308.15 K	313.15 K
x2 = 0	0.4796	0.4509	0.4242	0.399	0.3756	0.356	0.3416
x2 = 0.0525	0.4785	0.4498	0.4233	0.3983	0.3749	0.3552	0.3404
x2 = 0.0974	0.4776	0.4489	0.4223	0.3974	0.374	0.3541	0.3392
x2 = 0.2001	0.475	0.4462	0.4203	0.3963	0.3732	0.3533	0.3379
x2 = 0.3027	0.4724	0.4436	0.4183	0.395	0.3724	0.3529	0.3372
x2 = 0.4	0.4697	0.4409	0.4165	0.394	0.3718	0.3523	0.3364
x2 = 0.5248	0.4665	0.4384	0.4148	0.3933	0.3716	0.3523	0.3361
x2 = 0.6016	0.4647	0.4368	0.4139	0.393	0.3716	0.3523	0.336
x2 = 0.7006	0.463	0.4353	0.413	0.393	0.3721	0.353	0.3363
x2 = 0.7993	0.462	0.4346	0.4132	0.3939	0.3735	0.3545	0.3376
x2 = 0.8997	0.4619	0.4349	0.4143	0.3959	0.3759	0.3569	0.3396
x2 = 0.9502	0.4623	0.4356	0.4152	0.3972	0.3775	0.3587	0.3414
